Read-outs that look alike come from different tables or passages of the source.
How the values were obtained:
[1] = tested on: HCT-116-Irv cells (elisidepsin-resistant subline); experiment: cells
Procedure: B16 and GM95 cells were maintained in DMEM with the same supplements and conditions.
(§1) Cells were seeded in 96-well microtiter plates and maintained at 37°C and 5% CO2 in drug-free medium before treatment with vehicle alone or elisidepsin at the concentrations and times indicated in the text. For cell survival quantification, a colorimetric assay using SRB was used. Briefly, after treatment, cells were washed twice with phosphate buffered saline (PBS), fixed for 25 min in 1% glutaraldehyde solution, rinsed twice with PBS, stained in 0.4% SRB-1% acetic acid solution for 30 min, rinsed several times with 1% acetic acid solution, and air-dried. […] Results are expressed as percentage of control cell survival and represent the mean of at least three independent experiments. IC50, half-maximal inhibitory concentration, was used as a reference value.

[2] = Lipid overlay (dot-blot) assay with elisidepsin-biotin; format: binding, human; conditions: elisidepsin-biotin:elisidepsin 1:1 and 1:15
Procedure: Lipid extracts from cells were obtained according to the Bligh and Dyer method with slight modifications. Briefly, a cell pellet was resuspended in 1 mL of distilled water, then 3.75 mL of chloroform:methanol (1:2) was added and the suspension was mixed by vortexing two minutes; next, 1.25 mL of chloroform was added and vortexed one minute; last, 1.25 mL of NaCl 1 M was added to the suspension and vortexed one minute. The suspension was centrifuged and the bottom organic phase was collected. This solution was dried under a nitrogen stream and stored at -20°C. This extract was dissolved in a small volume of chloroform:methanol (2:1) and lipids were separated in a HPTLC (high performance thin layer chromatography) silica gel plate (Merck-Millipore, Darmstad, Germany) using a mobile phase of chloroform:methanol (8:2). Lipids were visualized by staining the plate with thioflavine S (sprayed with 10 μg mL^-1 in acetone:water (4:1) and visualized under UV light). Glycosylated lipids were visualized by orcinol staining (sprayed with orcinol 0.5% in sulphuric acid 0.5 M and developed with heat). […]
Interaction of purified lipid fractions with elisidepsin was evaluated with an overlay assay. […] Elisidepsin-biotin interactions were detected by incubation with streptavidin-HRP and subsequent chemiluminescence.

[3] = tested on: GM95 cells (UGCG-deficient B16 mutant); experiment: Cell viability assay (SRB colorimetric); format: cell-based, mouse; conditions: negative values where GM95 is the more sensitive line
Procedure: as §1

B16 cells = experiment: Cell viability assay (SRB colorimetric); format: cell-based, mouse; conditions: SRB assay; mean of three different experiments; read-out: B16 (IC50), cell growth half-maximal inhibitory concentration
Procedure: as §1

HCT-116 cells [4] = experiment: Electrophysiological recordings of membrane conductance (whole-cell patch-clamp); format: cell-based, human; conditions: elisidepsin 1 μM, ramps -100 mV to +120 mV, 500 ms, n = 4
Procedure: (§2) The effects of elisidepsin on membrane conductance were analyzed in HCT-116 and HCT-116-Irv cells as previously described. Experiments were performed in a small bath mounted on the stage of an inverted microscope (Nikon model TMS, Garden City, NY, USA) continuously perfused with the extracellular solution (Tyrode-glucose buffer). Ion currents were recorded at room temperature (20–22°C) using the whole-cell voltage-clamp configuration of the patch-clamp technique with an Axopatch 200B patch-clamp amplifier (Axon Instruments, Foster City, CA). Currents were filtered at 2 kHz (four-pole Bessel filter), sampled at 4 kHz. Data acquisition and command potentials were controlled by the CLAMPEX program of PCLAMP 9.2 software (Axon Instruments). Micropipettes were pulled from borosilicate glass capillary tubes (Narishige, GD-1, Tokyo, Japan) on a programmable horizontal puller (Sutter Instrument Co., San Rafael, CA, USA) and heat-polished with a microforge (Narishige). Pipette tip resistance averaged between 1 and 3 MΩ. The intracellular pipette solution contained (in mM): K-aspartate 80, KCl 50, phosphocreatine 3, KH2PO4 10, MgATP 3, HEPES-K 10, EGTA-K 5 and was adjusted to pH 7.25 with KOH. The external solution (Tyrode-glucose buffer) contained (in mM): NaCl 130, KCl 4, CaCl2 1.8, MgCl2 1, HEPES-Na 10, and glucose 10, and was adjusted to pH 7.40 with NaOH. Measurements were performed using the CLAMPFIT program of PCLAMP 9.2.

HCT-116-Irv cells = experiment: as above; format: cell-based, human; conditions: elisidepsin 1 μM; ramps -100 mV to +120 mV, 500 ms
Procedure: as §2

HCT-116 cells [5] = experiment: cells
Procedure: as §1

GM95-UGCG cells = conditions: read-out: mean IC50, GM95-UGCG cells; 72 h treatment (Fig 4C); SRB; at least three experiments
Procedure: as §1

Q: Which “RR (resistance ratio): fold change between IC50 values from HCT-116-Irv and HCT-116” value ([1]; negative values where HCT-116-Irv is the more sensitive line) does the source give for `C/C=C1\NC(=O)[C@H](Cc2ccccc2)NC(=O)[C@@H](C(C)C)NC(=O)[C@@H]([C@@H](C)CC)NC(=O)[C@H](NC(=O)[C@H](NC(=O)[C@H](CCCN)NC(=O)[C@H]2CCCN2C(=O)[C@H](NC(=O)[C@@H](NC(=O)[C@@H](NC(=O)[C@H](NC(=O)CC[C@@H](C)CC)C(C)C)[C@@H](C)O)C(C)C)C(C)C)[C@@H](C)CC)[C@@H](C)OC(=O)[C@H](C(C)C)NC1=O` [Elisidepsin] here?
A: Its value is 14.7.

Q: And the IC50 ([1]; read-out: HCT-116-Irv (IC50), cell growth half-maximal inhibitory concentration, SRB assay, 96-well, mean of three different experiments, exposure time not given)?
A: Its IC50 is 81 µM.

Q: And the IC50 ([1]; read-out: IC50 after 30 min exposure, HCT-116-Irv, 30 min exposure, SRB, at least three experiments)?
A: Its IC50 is greater than 100 µM.

Q: And the IC50 ([1]; read-out: IC50 after 72 h exposure, HCT-116-Irv, 72 h exposure, SRB, mean±SD of at least three experiments)?
A: The IC50 was 81.5 ± 0.8 µM.

Q: And the “Competition with elisidepsin-biotin for lipid fraction 4” value [2]?
A: The value was “could displace the biotinylated compound”.

Q: What about the “RR: fold change between IC50 values from GM95 and B16” value [3] of the same compound?
A: Its value is 8.9.

Q: And the IC50 (B16 cells)?
A: Its IC50 is 7.9 µM.

Q: And the “Time constant of the increase of membrane conductance” value (HCT-116 cells [4]; holding -80 mV, 20–22°C)?
A: The value was 107 ± 39 s.

Q: And the “Latency between application and the beginning of the effects on membrane conductance” value (HCT-116 cells [4])?
A: Its value is 460 ± 163 s.

Q: And the “Effect on membrane conductance” value (HCT-116-Irv cells)?
A: The value was “virtually no effect”.

Q: What about the “Sensitivity of HCT-116 cells to elisidepsin after pretreatment with UGCG inhibitor NB-DNJ” value (HCT-116 cells [5]; pretreated 48 h with NB-DNJ 200 μM, elisidepsin 30 min incubation, SRB, three experiments) of the same compound?
A: Its value is “increase in cell resistance”.

Q: And the “Sensitivity of HCT-116 cells to elisidepsin after pretreatment with UGCG inhibitor PDMP” value (HCT-116 cells [5]; pretreated 72 h with PDMP 10 μM, elisidepsin 30 min incubation, SRB, three experiments)?
A: Its value is “increase in cell resistance”.

Q: And the IC50 (HCT-116 cells [5]; read-out: HCT-116 (IC50), cell growth half-maximal inhibitory concentration, SRB assay, 96-well, mean of three different experiments, exposure time not given)?
A: Its IC50 is 5.5 µM.

Q: What about the IC50 (HCT-116 cells [5]; read-out: IC50 after 30 min exposure, HCT-116, 30 min exposure, SRB, mean±SD of at least three experiments) of the same compound?
A: Its IC50 is 7.7 ± 4.1 µM.

Q: What about the IC50 (GM95-UGCG cells) of the same compound?
A: Its IC50 is 9 µM.

Reference: PMC4608773, “Elisidepsin Interacts Directly with Glycosylceramides in the Plasma Membrane of Tumor Cells to Induce Necrotic Cell Death” (PLoS ONE, 2015)
